ChEMBL document CHEMBL4385634, “Melanogenic inhibitory effects of Triangularin in B16F0 melanoma cells, in vitro and molecular docking studies” (Bioorg Med Chem, 2019)

Key:
Tyrosinase [1] = target: T1, Tyrosinase (Mus musculus, UniProt P11344)
T1 sequence (P11344 whole entry): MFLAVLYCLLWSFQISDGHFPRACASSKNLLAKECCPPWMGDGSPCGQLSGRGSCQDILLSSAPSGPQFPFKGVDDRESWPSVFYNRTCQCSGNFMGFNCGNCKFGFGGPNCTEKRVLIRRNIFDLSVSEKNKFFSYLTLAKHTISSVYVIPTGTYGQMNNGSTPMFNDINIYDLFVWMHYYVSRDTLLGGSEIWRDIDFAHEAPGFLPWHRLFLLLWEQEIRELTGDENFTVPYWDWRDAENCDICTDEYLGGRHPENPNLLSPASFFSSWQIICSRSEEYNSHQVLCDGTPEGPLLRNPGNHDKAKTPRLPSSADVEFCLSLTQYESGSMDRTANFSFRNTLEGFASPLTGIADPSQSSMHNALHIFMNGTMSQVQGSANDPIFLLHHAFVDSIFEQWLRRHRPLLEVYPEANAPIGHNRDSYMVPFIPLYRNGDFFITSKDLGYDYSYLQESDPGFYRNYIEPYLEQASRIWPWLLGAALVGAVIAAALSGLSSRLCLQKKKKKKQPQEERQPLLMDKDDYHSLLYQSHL
Description: Inhibition of tyrosinase in mouse B16F0 cells using L-DOPA as substrate by UV-Visible spectrophotometric analysis

[2] = target: T2, Tyrosinase (Mus musculus) (UniProt P11344); test: Inhibition of intracellular tyrosinase in mouse B16F0 cells at 10 uM using L-DOPA as substrate preincubated with compound followed by substrate addition and measured after 20 mins by UV-Visible spectrophotometric analysis relative to control; assay type: cell-based
T2 sequence (whole entry): T1 sequence (P11344 whole entry)

[3] = target: T2, Tyrosinase (Mus musculus); test: Inhibition of intracellular tyrosinase in mouse B16F0 cells at 50 uM using L-DOPA as substrate preincubated with compound followed by substrate addition and measured after 20 mins by UV-Visible spectrophotometric analysis relative to control; assay type: cell-based
[4] = target: T2, Tyrosinase (Mus musculus); test: Potency index, ratio of IC50 for KA to IC50 for test compound for inhibition of tyrosinase in mouse B16F0 cells using L-DOPA as substrate by UV-Visible spectrophotometric analysis; assay type: cell-based
Tyrosinase [5] = target: T3, Tyrosinase (Agaricus bisporus, UniProt O42713); test: Inhibition of mushroom tyrosinase diphenolase activity using L-dopa as substrate preincubated for 10 mins followed by substrate addition by UV-Visible spectrophotometric analysis
T3 sequence (O42713 whole entry): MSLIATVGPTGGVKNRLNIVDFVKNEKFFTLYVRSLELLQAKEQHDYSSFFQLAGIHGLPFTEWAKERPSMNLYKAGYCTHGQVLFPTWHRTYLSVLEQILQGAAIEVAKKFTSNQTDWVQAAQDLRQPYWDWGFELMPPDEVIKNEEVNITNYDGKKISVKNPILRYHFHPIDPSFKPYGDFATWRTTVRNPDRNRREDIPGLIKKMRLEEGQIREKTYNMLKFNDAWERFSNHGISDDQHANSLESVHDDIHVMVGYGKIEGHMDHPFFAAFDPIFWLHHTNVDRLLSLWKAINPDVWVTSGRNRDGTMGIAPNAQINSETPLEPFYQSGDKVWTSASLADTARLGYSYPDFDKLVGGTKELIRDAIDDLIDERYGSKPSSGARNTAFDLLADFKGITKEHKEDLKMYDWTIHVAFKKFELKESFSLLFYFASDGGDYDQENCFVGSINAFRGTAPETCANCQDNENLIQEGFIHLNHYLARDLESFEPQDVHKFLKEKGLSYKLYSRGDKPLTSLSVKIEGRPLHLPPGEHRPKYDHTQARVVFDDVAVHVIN

[6] = target: T2, Tyrosinase (Mus musculus); test: Potency index, ratio of compound effect to KA effect for inhibition of intracellular tyrosinase in mouse B16F0 cells using L-DOPA as substrate preincubated with compound followed by substrate addition and measured after 20 mins by UV-Visible spectrophotometric analysis; assay type: cell-based
[7] = target: T2, Tyrosinase (Mus musculus); test: Inhibition of intracellular tyrosinase in mouse B16F0 cells at 1 uM using L-DOPA as substrate preincubated with compound followed by substrate addition and measured after 20 mins by UV-Visible spectrophotometric analysis relative to control; assay type: cell-based
[8] = target: T2, Tyrosinase (Mus musculus); test: Potency index, ratio of IC50 for KA to IC50 for test compound for inhibition of tyrosinase in mouse B16F0 cells assessed as reduction in melanin production incubated for 24 hrs by spectrophotometric analysis; assay type: cell-based
[9] = target: T2, Tyrosinase (Mus musculus); test: Potency index, ratio of compound effect to KA effect for inhibition of tyrosinase in mouse B16F0 cells at 10 uM using L-DOPA as substrate; assay type: cell-based
Tyrosinase [10] = target: T1, Tyrosinase; test: Inhibition of tyrosinase in mouse B16F0 cells assessed as reduction in melanin production incubated for 24 hrs by spectrophotometric analysis; assay type: cell-based
[11] = target: T4, Tyrosinase (Agaricus bisporus) (UniProt O42713); test: Potency index, ratio of IC50 for KA to IC50 for test compound for inhibition of mushroom tyrosinase diphenolase activity using L-dopa as substrate preincubated for 10 mins followed by substrate addition by UV-Visible spectrophotometric analysis
T4 sequence (whole entry): T3 sequence (O42713 whole entry)

[12] = target: T2, Tyrosinase (Mus musculus); test: Inhibition of intracellular tyrosinase in mouse B16F0 cells at 5 uM using L-DOPA as substrate preincubated with compound followed by substrate addition and measured after 20 mins by UV-Visible spectrophotometric analysis relative to control; assay type: cell-based
[13] = target: T2, Tyrosinase (Mus musculus); test: Inhibition of intracellular tyrosinase in mouse B16F0 cells using L-DOPA as substrate preincubated with compound followed by substrate addition and measured after 20 mins by UV-Visible spectrophotometric analysis relative to control; assay type: cell-based
[14] = target: T2, Tyrosinase (Mus musculus); test: Inhibition of intracellular tyrosinase in mouse B16F0 cells at 25 uM using L-DOPA as substrate preincubated with compound followed by substrate addition and measured after 20 mins by UV-Visible spectrophotometric analysis relative to control; assay type: cell-based
[15] = target: T2, Tyrosinase (Mus musculus); test: Inhibition of intracellular tyrosinase in mouse B16F0 cells at 100 uM using L-DOPA as substrate preincubated with compound followed by substrate addition and measured after 20 mins by UV-Visible spectrophotometric analysis relative to control; assay type: cell-based
B16-F0 = test: (§1) Cytotoxicity against mouse B16F0 cells incubated for 24 hrs by MTT assay; assay type: cell-based; settings: b16-f0, 24 h
[16] = as §1; assay type: cell-based, B16-F0; settings: B16F0 cells, read-out: MNCC

## COc1cc(O)c(C(=O)/C=C/c2ccccc2)c(O)c1C
Tyrosinase [1]
  IC50: 30.1 µM
[2]
  inhibition: 7.8%
[3]
  inhibition: 16.2%
[4]
  Ratio: 3
Tyrosinase [5]
  IC50: 63.1 µM
[6]
  Ratio: 5
[7]
  inhibition: 3.9%
[8]
  Ratio IC50: 8
[9]
  Ratio: 6
Tyrosinase [10]
  IC50: 25 µM
[11]
  Ratio IC50: 2
[12]
  inhibition: 6.1%
[13]
  inhibition: Dose-dependent effect
[14]
  inhibition: 13%
[15]
  inhibition: 20.1%
B16-F0
  Activity: Dose-dependent effect
[16]
  MNTC at 24 h: 100 µM
